Measurements: patent US9975846B2, “Multivalent compounds for use in the treatment and prevention of brain damage” (MEDICORTEX FINLAND OY, priority 2014, dated 2018)

Key:
MPTP model = assay: Modified MPTP mouse model: dopaminergic system protection and behavioral skills; assay type: in vivo, mice; conditions: MPTP 4 x 10 mg/kg i.p. Day 1; s.c. three times a week Day 2 to Day 21; rotarod, pole, social recognition tests
Description: In this administration scheme, mice are injected i.p. four times with a MPTP dose of 10 mg/kg, two hours apart, on Day 1. Each test compound, control and vehicle are administered s.c. three times a week from Day 2 until Day 21. The present compounds are administered either alone or in combination with a non-steroidal anti-inflammatory drug, antioxidant, and/or metal ions chelate. One week prior to the MPTP dosing, the mice are trained for a rotarod performance test for three days. The rotarod test is then repeated four times during the course of the experiment. Motor performance and coordination is also tested by a pole test. Social recognition test is conducted once on the last days of the experiment.

[1] = tested on: rat model of experimental closed head injury; assay: Rat model of experimental closed head injury: behaviour, brain edema, lesion volume, inflammatory markers; assay type: in vivo; conditions: oral 6 h post-injury
Description: A rat model of experimental closed head injury disclosed by Bilgen et al. (Neurorehabil. Neural Repair, 2005, 19:219-226) with some modifications is employed for testing the effect of the present compounds on behaviour, brain edema, lesion volume, and inflammatory markers after a head trauma.
Each test compound, control compound, or vehicle is administered orally 6 h post-injury.
In vivo T2 weighted magnetic resonance imaging (MRI) is performed on the animals to depict the pathologies, including lesion size, tissue viability, and brain edema, of the resulting injuries in the corresponding neuronal tissues at 24 h and day 3.
Behavioral tests, including a seven-point neuroscore test modified from Zausinger et al. (Brain Res., 2000, 863:94-105), are used to assess motor and behavioural deficits by a blinded investigator at baseline and on days 1, 3, 7, 14, and 28 post-injury. Additionally, sensimotor recovery of forelimb and hindlimb responses to tactile and proprioceptive stimulation is evaluated by a limb-placing test essentially as described by Jolkkonen et al. in Restor. Neurol. Neurosci., 2000, 17:211-216.
After euthanization, histological evaluation of the injury in the cortex and hippocampus is performed. Additionally, inflammatory markers, astrocytic and microglial activation is evaluated by immunohistochemistry.

[2] = tested on: MPTP mouse model of Parkinson's disease; assay: MPTP mouse model of Parkinson's disease: dopaminergic system protection; assay type: in vivo; conditions: MPTP 4 x 15 mg/kg i.p.; daily i.p. for 14 days from Day 0; striatal tissue by HPLC
Description: In the model, depletion of striatal dopamine (DA) and dopaminergic neuronal death in the substantia nigra (SN) is caused by systemic administration of MPTP (1-methyl-4-phenyl-1,2,3,6-tetrahydropyridine). To be more specific, MPTP is administered twice daily, 3 hours apart, by i.p. injections on Day 0 and Day 1. Each dose is 15 mg/kg, the total dose being 60 mg/kg.
Each test compound, control or vehicle is administered by daily i.p. injections for 14 days starting from Day 0.
After euthanization on Day 14, blood samples are collected by cardiac punctures and stored at −80° C. for further analysis. Blood is removed from the brains by transcardial perfusion with saline. Posterior brain blocks containing the SN are then removed and processed for cryosectioning, while striata are dissected in toto, pooled, weighted, snap-frozen in liquid nitrogen, and stored at −80° C.
20-μm-thick coronal cryosections are analysed immunohistochemically for the expression of tyrosine hydroxylase (TH), a rate-limiting enzyme in dopamine synthesis by counting the number of TH-positive neurons bilaterally in the SN.
Striatal tissue samples are analysed for DA and its two metabolites, 3,4-dihydroxyphenylacetic acid (DOPAC) and homovanillic acid (HVA), levels by HPLC.

[3] = tested on: mouse model of experimental closed head injury; assay: Mouse model of experimental closed head injury: cognitive rehabilitation after traumatic brain injury; assay type: in vivo; conditions: closed head injury by weight-drop; s.c. from day 8 onwards, three times a week; behavioral tests at baseline, day 7, day 30
Description: A mouse model of experimental closed head injury disclosed by Yatsiv et al. in FASEB J. 2005, 19:1701-1703 is employed for testing the efficacy of the present compounds to improve functional recovery after a head trauma caused by a weight-drop onto an exposed skull.
Severity of the injury is assessed according to the Neurological Severity Score disclosed by Beni-Adani et al. (J. Pharmacol. Exp. Ther. 2001, 296:57-63) on the basis of ten individual tasks reflecting motor function, alertness, and behaviour.
Each test compound, control compound, or vehicle is administered subcutaneously from day 8 onwards, three times a week.
Behavioral tests, including open field (OF), elevated plus maze (EMP), and social recognition tests are carried out at baseline, on day 7, and day 30.
After euthanization, plasma levels of cytokines and TBI-specific biomarkers, such as S100B, are determined and the brains are evaluated histologically.

[4] = T2 weighted MRI at 24 h and day 3

Compound: CCCCC/C=C\C/C=C\CCCCCCCC(=O)Nc1ccc(OC(=O)c2cccc(O)c2O)c(OCCOc2ccccc2OC(=O)c2cccc(O)c2O)c1 [TBI-446, 2-(2-(2-((2,3-dihydroxybenzoyl)oxy)-5-((9Z,12Z)-octadeca-9,12-dienamido)phenoxy)ethoxy)phenyl 2,3-dihydroxybenzoate]
- behavioural recovery (MPTP model): behavioural recovery
- brain edema after closed head injury [1, 4]: decreased
- lesion volume after closed head injury [1, 4]: decreased
- levels of inflammatory markers ([1]; immunohistochemistry after euthanization): decreased
- protection of the dopaminergic system from reduction of striatal DA levels caused by MPTP [2]: protect the dopaminergic system from the reduction of the DA levels
- cognitive rehabilitation of the mice [3]: improved cognitive rehabilitation
